From patent US8318898B2, “Synthetic peptides for use as inhibitors of neurotransmitter secretion and as inducers of cellular relaxation” (Universite de Lausanne, priority 2005, dated 2012)

Assays:
PC-12 cells = assay: Subcellular localization of FITC-labeled peptide and colocalization with furin, confocal microscopy; format: cell-based, rat; details: 1 and 100 μM
From the text: Two peptides of interest were FITC-labeled (Anaspec) to follow their interiorization on PC-12 cells (rat pheochromocytoma cells): L-Bel1 (SEQ ID NO. 3) and D-9Rac/am (SEQ ID NO. 15). After observation of L-Bel1-FITC conjugate interiorization, a monoclonal antibody for furin endoprotease was used for colocalization studies by confocal microscopy analysis.
PC-12 cells were resuspended in Dulbecco's modified Eagle's medium (DMEM) high glucose (Gibco BRL, Life Technologies) containing 6% decomplemented horse serum, 6% decomplemented fetal bovine serum, supplemented with 25 U/ml penicillin-streptomycin-I-glutamine. Cells were seeded at 3×10^4 cells/well (200 μl), on 8-well microscope slide chamber (BD Biosciences), previously coated with collagen I (Roche Diagnostics) solution (0.0007%). After an overnight incubation at 37° C. in 5% CO2, cells were washed twice using fresh medium without serum, and then incubated in the presence or absence of the peptide, for the indicated time. […]
The fluorescent images were obtained by confocal laser scanning microscope (Zeiss LSM 510) with lasers of argon (488 nm), helium-neon 1 (543 nm), and enterprise (364 nm); connected to an inverted fluorescence microscope (Zeiss Axiovert 100 M), equipped with a 63×/1.4 PL APO chromate objective lens.

rat lung fibroblast (LF) = assay: Cell contraction/relaxation on wrinkling silicone substrate, live videomicroscopy; format: cell-based; details: 10 μM and 50 μM
Experimental: To study the effect(s) of the peptides on muscle cells, which associate with neurosecretory cells at neuromuscular junctions, peptides were cultured with rat lung fibroblast (LF) grown over wrinkling substrate (silicon) which can mimic the effects of contraction. These cells have a myofibroblastic phenotype, e.g., production of TGF-β, which make them suitable for cellular contraction/relaxation studies.
Wrinkling silicone substrates were prepared as essentially described previously (Harris, et al., Science. 208:177-179, 1980; Hinz, et al., Mol Biol Cell. 12:2730-41, 2001). Briefly, 50 μl of silicone (poly dimethyl siloxane; 30.000 centistokes, Dow Corning, Midland, Mich.) were deposited onto a 35 mm round glass coverslip at the bottom of a self-made observation chamber, which was centrifuged at 1.000 rpm for 2 minutes to spread the viscous fluid. The silicone surface was then crosslinked by passing it through a Bunsen flame; a flaming time of 1 second produced a surface stiffness that restricted wrinkle formation to fibroblasts with high contractile force (Hinz et al., supra). The polymerized silicone surface was finally coated with 10 μg/ml collagen type I (Sigma) for 2 hours at 37° C. Lung fibroblast cells were seeded at a density of 3.5×10^3 cells/cm^2 and cultured for 1-2 days before the experiment. […]

SMILES: N=C(N)NCCC[C@H](NC(=O)CNC(=O)[C@H](Cc1ccc(O)cc1)NC(=O)CN)C(=O)N[C@@H](CCCCN)C(=O)N[C@@H](CCCCN)C(=O)N[C@@H](CCCNC(=N)N)C(=O)N[C@@H](CCCNC(=N)N)C(=O)N[C@@H](CCC(N)=O)C(=O)N[C@@H](CCCNC(=N)N)C(=O)N[C@@H](CCCNC(=N)N)C(=O)N[C@@H](CCCNC(=N)N)C(=O)NCC(=O)O [L-Tat]
- internalization of FITC-labeled peptide (PC-12 cells): crosses the basal membrane
- relaxing effect on lung myofibroblasts on silicon substrate (rat lung fibroblast (LF)): slow but constant loss of silicon substrate wrinkles and cell detachment
